{"source": "ChEMBL document CHEMBL1201862", "about": "“PubChem BioAssay data set” (2004)", "key": {"[1]": {"assay": "inhibition of bursicon-driven LGR2 cAMP signaling – cell-based, HEK293, CRE-luciferase reporter, cherry pick, dose response (AID 743342)", "assay_type": "functional"}, "[2]": {"assay": "A549 cell cytotoxicity, dose response, cytotoxicity control, plate reader, cherry-pick, antagonist series (AID 743412)", "assay_type": "functional, cell-based"}, "[3]": {"target": "Fructose-bisphosphate aldolase (Mycobacterium tuberculosis, UniProt P9WQA3)", "sequence (P9WQA3 whole entry)": "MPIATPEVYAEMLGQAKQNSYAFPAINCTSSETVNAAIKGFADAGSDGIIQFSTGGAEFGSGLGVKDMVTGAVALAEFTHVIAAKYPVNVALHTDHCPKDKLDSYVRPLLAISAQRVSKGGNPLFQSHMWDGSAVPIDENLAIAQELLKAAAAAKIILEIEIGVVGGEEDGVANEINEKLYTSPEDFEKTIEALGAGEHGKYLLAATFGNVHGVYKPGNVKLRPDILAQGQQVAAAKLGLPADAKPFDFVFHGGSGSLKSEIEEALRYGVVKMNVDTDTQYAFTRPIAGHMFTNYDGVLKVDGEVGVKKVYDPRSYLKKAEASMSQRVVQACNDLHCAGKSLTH", "assay": "Fluorescence-based biochemical high throughput dose response assay for inhibitors of the fructose-bisphosphate aldolase (FBA) of M. tuberculosis.", "assay_type": "functional"}, "[4]": {"assay": "Luminescence Cell-Based Dose Confirmation HTS to Identify Activators of 5'UTR Stem-Loop Driven Alpha-Synuclein mRNA Translation in H4 Neuroglioblastoma Cells. [Related pubchem assays: 1829 (Project Summary), 1814 (Primary HTS)]", "assay_type": "functional"}, "[5]": {"assay": "Luminescence Cell-Based Dose Response HTS to Identify Activators of Luciferase Translation or Activity in H4 […] Cells. [Related pubchem assays: 1829 (Project Summary), 1814 (Primary HTS)]", "assay_type": "functional"}, "[6]": {"target": "T1, Rac GTPase-activating protein 1 (Homo sapiens, UniProt Q9H0H5)", "T1 sequence (Q9H0H5 whole entry)": "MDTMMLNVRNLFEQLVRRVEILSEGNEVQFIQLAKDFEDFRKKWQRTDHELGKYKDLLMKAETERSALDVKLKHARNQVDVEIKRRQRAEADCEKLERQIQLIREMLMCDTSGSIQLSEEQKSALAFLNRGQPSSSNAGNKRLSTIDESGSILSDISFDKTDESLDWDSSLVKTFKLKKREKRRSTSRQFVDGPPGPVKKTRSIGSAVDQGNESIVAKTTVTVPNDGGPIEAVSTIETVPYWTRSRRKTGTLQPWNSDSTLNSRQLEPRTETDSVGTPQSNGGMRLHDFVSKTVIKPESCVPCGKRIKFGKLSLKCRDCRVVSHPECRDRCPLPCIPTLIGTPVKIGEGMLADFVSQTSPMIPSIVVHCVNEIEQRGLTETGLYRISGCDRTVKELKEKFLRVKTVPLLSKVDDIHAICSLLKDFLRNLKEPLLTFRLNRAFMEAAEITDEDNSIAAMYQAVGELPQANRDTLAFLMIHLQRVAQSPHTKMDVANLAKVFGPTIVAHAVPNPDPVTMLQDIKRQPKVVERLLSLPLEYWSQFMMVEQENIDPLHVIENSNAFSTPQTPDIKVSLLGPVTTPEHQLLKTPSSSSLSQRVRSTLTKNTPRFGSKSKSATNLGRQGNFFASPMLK", "assay": "blockers of MgcRacGAP-driven Rac1 GTP hydrolysis – biochemical, ADP Hunter fluorescence, primary and confirmatory, confirmation (AID 624330)", "assay_type": "functional"}, "[7]": {"assay": "viability loss in HeLa cells – cytotoxicity control for MgcRacGAP inhibitor project, dose response (AID 624300)", "assay_type": "functional"}, "H4": {"system": "H4", "assay": "Luminescence Cell-Based Dose Response HTS to Identify Activators of 5'UTR Stem-Loop Driven Prion Protein mRNA Translation in H4 Neuroglioblastoma Cells. [Related pubchem assays: 1829 (Project Summary), 1814 (Primary HTS)]", "assay_type": "functional", "conditions": "Homo sapiens"}, "Protein Wnt-3a": {"target": "Protein Wnt-3a (Mus musculus, UniProt P27467)", "sequence (P27467 whole entry)": "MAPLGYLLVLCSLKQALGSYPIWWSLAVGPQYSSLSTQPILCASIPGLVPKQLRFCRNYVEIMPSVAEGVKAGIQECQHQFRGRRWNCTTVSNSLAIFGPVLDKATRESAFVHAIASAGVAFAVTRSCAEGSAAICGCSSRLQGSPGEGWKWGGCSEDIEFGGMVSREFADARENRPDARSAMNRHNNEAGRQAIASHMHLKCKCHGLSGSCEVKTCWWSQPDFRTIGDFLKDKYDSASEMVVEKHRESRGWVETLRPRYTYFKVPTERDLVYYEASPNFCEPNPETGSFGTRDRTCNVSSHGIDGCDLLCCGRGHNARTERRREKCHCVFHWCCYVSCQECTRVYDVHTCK", "assay": "SAR analysis of small molecule antagonists of Gli-SUFU in a Wnt3a luminescent reporter assay.", "assay_type": "functional"}, "[8]": {"assay": "blockers of HIV-1 envelope-mediated cell-cell fusion – cherry-pick, dose response (AID 652057)", "assay_type": "functional, cell-based"}, "[9]": {"assay": "HIV-1 AD8 envelope cell-cell fusion blockers – cherry-pick, dose response (AID 652062);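 further: potency is for inhibitors of fusion seen as a drop in luminescence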", "assay_type": "functional, cell-based"}, "[10]": {"assay": "blockers of HIV-1 ZM109 envelope-driven cell-cell fusion – HeLa effector, CEM target cells, luciferase, cherry-pick, dose response (AID 652058)", "assay_type": "functional, cell-based"}, "[11]": {"assay": "off-target signal loss in HeLa-CEM21 co-culture – HeLa F-luc CTL cells, cherry-picked, counter-screen for HIV-1 Env fusion inhibitor project, dose response (AID 652040);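 further: potency for signal decrease marking cytotoxic or nonspecific inhibition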", "assay_type": "functional, cell-based"}, "[12]": {"assay": "IGROV1 cell killing – plate reader, dry powder samples, PAX8 inhibitor project, dose response (AID 743043)", "assay_type": "functional, cell-based", "conditions": "IGROV-1"}, "Paired box protein Pax-8": {"target": "Paired box protein Pax-8 (Homo sapiens, UniProt Q06710)", "sequence (Q06710 whole entry)": "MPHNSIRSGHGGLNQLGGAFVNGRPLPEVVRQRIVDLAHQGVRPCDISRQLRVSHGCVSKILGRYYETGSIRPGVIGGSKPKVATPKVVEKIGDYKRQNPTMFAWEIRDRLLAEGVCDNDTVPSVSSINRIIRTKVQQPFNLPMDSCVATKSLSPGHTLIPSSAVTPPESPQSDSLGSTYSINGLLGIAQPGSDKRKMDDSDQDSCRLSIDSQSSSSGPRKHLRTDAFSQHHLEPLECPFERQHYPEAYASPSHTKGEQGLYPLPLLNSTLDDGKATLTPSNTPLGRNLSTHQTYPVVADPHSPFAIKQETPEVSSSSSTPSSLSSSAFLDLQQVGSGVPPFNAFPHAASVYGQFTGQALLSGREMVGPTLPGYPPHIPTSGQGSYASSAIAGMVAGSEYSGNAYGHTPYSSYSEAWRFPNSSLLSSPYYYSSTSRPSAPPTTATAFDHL", "assay": "PAX8 transcriptional activity inhibition in RMG-I – RMG-I cells, luciferase, cherry-pick, dose response (AID 687027);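 further: luciferase reporter driven by Pax8 target thyroperoxidase promoter measured by SteadyGlo luminescence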", "assay_type": "functional, cell-based"}, "H9c2": {"system": "H9c2", "assay": "cells", "assay_type": "functional, cell-based", "conditions": "Rattus norvegicus, H9c2, Myocardium"}, "[13]": {"target": "Botulinum neurotoxin type F (Clostridium botulinum, UniProt P30996)", "sequence (P30996 1-436 limits assumed)": "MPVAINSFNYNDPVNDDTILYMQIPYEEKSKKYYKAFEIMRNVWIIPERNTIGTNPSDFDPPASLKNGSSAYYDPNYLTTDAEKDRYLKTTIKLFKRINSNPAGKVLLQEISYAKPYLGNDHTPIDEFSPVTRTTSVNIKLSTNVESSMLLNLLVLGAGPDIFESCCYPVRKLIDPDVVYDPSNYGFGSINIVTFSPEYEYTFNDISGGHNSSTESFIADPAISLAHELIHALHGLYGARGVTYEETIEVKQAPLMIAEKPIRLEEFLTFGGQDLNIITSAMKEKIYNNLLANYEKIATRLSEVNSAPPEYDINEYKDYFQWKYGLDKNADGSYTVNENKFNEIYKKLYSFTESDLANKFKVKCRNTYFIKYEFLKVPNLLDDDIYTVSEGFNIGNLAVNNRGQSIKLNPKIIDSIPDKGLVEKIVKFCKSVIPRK", "assay": "High-throughput multiplex microsphere dose response for inhibitors of toxin protease, specifically Botulinum neurotoxin light chain F protease, compounds from Cherry Pick 02.", "assay_type": "functional", "conditions": "read-out: EC50_MICROM"}}, "note": "The source made the active and inactive calls.", "data": [{"smiles": "C[C@H](CO)N1C[C@H](C)[C@H](CN(C)C(=O)Nc2cccc3ccccc23)OCCCC[C@H](C)Oc2ccc(NC(=O)C3CCCCC3)cc2C1=O", "values": [{"measurement": "AC50", "setting": "[1]", "value": "0.747 µM (active)"}, {"measurement": "AC50", "setting": "[2]", "value": "43.9 µM (active)"}]}, {"smiles": "CCN(CC)CCCNC(=O)CCC(=O)Nc1ccc2nc(N3CCC(C)CC3)cc(C)c2c1", "values": [{"measurement": "IC50", "setting": "[3]", "value": "> 0.37 µM (active)"}]}, {"smiles": "COc1ccc(/C=N/Nc2ncnc3sc4c(c23)CCCC4)cc1O", "values": [{"measurement": "EC50", "setting": "[4]", "value": "13.4 µM (active)"}, {"measurement": "EC50", "setting": "[5]", "value": "6.72 µM (active)"}, {"measurement": "IC50", "setting": "[6]", "value": "56.1 µM (active)"}, {"measurement": "CC50", "setting": "[7]", "value": "70.4 µM (active)"}, {"measurement": "EC50", "setting": "H4", "value": "8.38 µM (active)"}]}, {"smiles": "CN(C)c1cc(NC(=O)c2cccc(C#N)c2)ncn1", "values": [{"measurement": "IC50", "setting": "Protein Wnt-3a", "value": "> 21.8 µM (inactive)"}]}, {"smiles": "CCC(NS(=O)(=O)c1c(C)nc(O)nc1O)C12CC3CC(CC(C3)C1)C2", "note": "(configuration not stated)", "values": [{"measurement": "AC50", "setting": "[8]", "value": "7.48 µM (active)"}, {"measurement": "AC50", "setting": "[9]", "value": "7.16 µM (active)"}, {"measurement": "AC50", "setting": "[10]", "value": "7.79 µM (active)"}, {"measurement": "AC50", "setting": "[11]", "value": "11.8 µM (active)"}]}, {"smiles": "C[C@H]1CCCCO[C@H](CN(C)C(=O)C2CCCCC2)[C@@H](C)CN([C@@H](C)CO)C(=O)c2cc(NC(=O)Nc3ccc(F)cc3)ccc2O1", "values": [{"measurement": "AC50", "setting": "[12]", "value": "57.6 µM (active)"}, {"measurement": "AC50", "setting": "Paired box protein Pax-8", "value": "8.1 µM (active)"}]}, {"smiles": "COc1ccc(-c2oc3c(OC)c(OC)c(OC)c(O)c3c(=O)c2OC)cc1OC", "values": [{"measurement": "IC50", "setting": "H9c2", "value": "> 79 µM (inactive)"}, {"measurement": "EC50", "setting": "[13]", "value": "> 20 µM (inactive)"}]}]}
